Experimental data reported in the supplement of paper PMC4862054.

What was measured:
Conditions in all cases: incubation time: 72 h
[1] = test system: MDA-MB-468; assay: drug sensitivity score (DSS), CellTox Green (DSS (AUC-based score)); higher = stronger drug effect (viability inhibition or cytotoxicity); extreme values may be limits of the assay
Outline: (§1)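 Plates with 384 wells held compound at 5 concentrations in 10-fold steps over a 10,000-fold range specific to each compound. Breast cancer cell lines were added in 20 µl suspension and incubated 72 h, then read for CellTox Green and CellTiter-Glo signals, with each plate normalised to 0.1 % DMSO and a positive kill control. The drug sensitivity score is based on the area under the fitted dose-response curve.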

[2] = test system: HCC1599; assay: as above
Outline: as §1

[3] = test system: HCC1143; assay: as above
Outline: as §1

[4] = test system: DU-4475; assay: as above
Outline: as §1

[5] = test system: MCF-10A; assay: as above
Outline: as §1

[6] = test system: CAL-120; assay: as above
Outline: as §1

[7] = test system: MFM-223; assay: as above
Outline: as §1

[8] = test system: CAL-148; assay: as above
Outline: as §1

[9] = test system: BT-474; assay: as above
Outline: as §1

[10] = test system: CAL-51; assay: as above
Outline: as §1

[11] = test system: CAL-85-1; assay: as above
Outline: as §1

[12] = test system: MDA-MB-436; assay: as above
Outline: as §1

[13] = test system: HDQ-P1; assay: as above
Outline: as §1

[14] = test system: BT-549; assay: as above
Outline: as §1

[15] = test system: MDA-MB-453; assay: as above
Outline: as §1

[16] = test system: MDA-MB-468; assay: normalised viability (% of control), CellTiter-Blue; higher = more viable cells (about 100 = DMSO control)
Protocol: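 DSRT, CellTiter-Blue viability, 72 h incubation. Signal is normalised to DMSO and benzethonium chloride controls. Value is the normalised response at dose 3.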

[17] = test system: MDA-MB-468; assay: drug sensitivity score (DSS), CellTiter-Glo (DSS (AUC-based score)); higher = stronger drug effect (viability inhibition or cytotoxicity); extreme values may be limits of the assay
Outline: as §1

[18] = test system: SK-BR-3; assay: as above
Outline: as §1

[19] = test system: HCC1143; assay: as above
Outline: as §1

[20] = test system: CAL-120; assay: as above
Outline: as §1

[21] = test system: Hs578T; assay: as above
Outline: as §1

[22] = test system: MDA-MB-436; assay: as above
Outline: as §1

[23] = test system: BT-549; assay: as above
Outline: as §1

[24] = test system: MDA-MB-453; assay: as above
Outline: as §1

[25] = test system: MDA-MB-231; assay: as above
Outline: as §1

Row | SMILES | drug sensitivity score [1] | drug sensitivity score [2] | drug sensitivity score [3] | drug sensitivity score [4] | drug sensitivity score [5] | drug sensitivity score [6] | drug sensitivity score [7] | drug sensitivity score [8] | drug sensitivity score [9] | drug sensitivity score [10] | drug sensitivity score [11] | drug sensitivity score [12] | drug sensitivity score [13] | drug sensitivity score [14] | drug sensitivity score [15] | normalised viability ([16]; 100 nM) | drug sensitivity score [17] | drug sensitivity score [18] | drug sensitivity score [19] | drug sensitivity score [20] | drug sensitivity score [21] | drug sensitivity score [22] | drug sensitivity score [23] | drug sensitivity score [24] | drug sensitivity score [25] | normalised viability ([16]; 10 nM)
1 | CS(=O)(=O)c1ccc(C(=O)Nc2ccc(Cl)c(-c3ccccn3)c2)c(Cl)c1 [Vismodegib] | 0 | 0 | 0 | 0 | 0 | 0 | 0 | 0 | 0 | 0 | 0 | 0 | 0 | 0 | 0 | 113% | 0 | 0 | 0 | 0 | 0 | 0 | 0 | 0 | 0 | –
2 | Cc1c2oc3c(C)ccc(C(=O)N[C@@H]4C(=O)N[C@H](C(C)C)C(=O)N5CCC[C@H]5C(=O)N(C)CC(=O)N(C)[C@@H](C(C)C)C(=O)O[C@@H]4C)c3nc-2c(C(=O)N[C@@H]2C(=O)N[C@H](C(C)C)C(=O)N3CCC[C@H]3C(=O)N(C)CC(=O)N(C)[C@@H](C(C)C)C(=O)O[C@@H]2C)c(N)c1=O [Dactinomycin] | 10.7 | 0 | 1.67 | 0 | 15.4 | 0 | 4.62 | 21.3 | 2.02 | 22.9 | 16.4 | 0 | 0 | 6.35 | 0 | – | 32.2 | 21.3 | 22.4 | 17.8 | 22.5 | 21 | 31.3 | 18.7 | 22.4 | 18.9%
3 | CN1CCC(COc2cnc(-c3cccc(Cn4nc(-c5cccc(C#N)c5)ccc4=O)c3)nc2)CC1 | 0 | 0 | 0 | 0 | 0 | 0 | 0 | 0 | 0 | 0 | 0.655 | 0 | 0 | 0 | 0 | 95% | 0 | 0 | 0 | 0 | 0 | 1.23 | 0 | 0 | 0 | –
4 | CO[C@H]1C[C@@H]2CC[C@@H](C)[C@@](O)(O2)C(=O)C(=O)N2CCCC[C@H]2C(=O)O[C@H]([C@H](C)C[C@@H]2CC[C@@H](OC(=O)C(C)(CO)CO)[C@H](OC)C2)CC(=O)[C@H](C)/C=C(\C)[C@@H](O)[C@@H](OC)C(=O)[C@H](C)C[C@H](C)/C=C/C=C/C=C/1C [Temsirolimus] | 0 | 0 | 0 | 0 | 0 | 0 | 0 | 0 | 0 | 0 | 0 | 0 | 0 | 0 | 0 | – | 14.7 | 11 | 8.92 | 7.34 | 10.1 | 3.51 | 12.7 | 9.78 | 0 | 68.3%
5 | CN(C)C/C=C/C(=O)Nc1cc2c(Nc3ccc(F)c(Cl)c3)ncnc2cc1O[C@H]1CCOC1 [Afatinib] | 0 | 0 | 1.18 | 0 | 0 | 0 | 0 | 0 | 3.66 | 0 | 8 | 0 | 0 | 0 | 0 | 60.9% | 2.66 | 17.8 | 0 | 0 | 0 | 0 | 0.0448 | 4.69 | 0 | –
6 | O=C(c1ccc(C(=O)N2CCC(N3CCCC3)CC2)c(Nc2ccccc2)c1)N1CCC(N2CCCC2)CC1 [UNC1215] | 0 | 0 | 0.868 | 0 | 0 | 0 | 0 | 0 | 0 | 0 | 0 | 0 | 0 | 0 | 0 | – | 0 | 0 | 0 | 0 | 0 | 0 | 0 | 0 | 0 | –
7 | COc1cc(Nc2ncc3c(n2)-c2ccc(Cl)cc2C(c2c(F)cccc2OC)=NC3)ccc1C(=O)O [MLN8237] | – | – | – | – | – | – | – | – | – | – | – | – | – | – | – | 62.6% | – | – | – | – | – | – | – | – | – | –
8 | Clc1ccc(C(c2ccccc2Cl)C(Cl)Cl)cc1 (configuration not stated) [Mitotane] | 0 | 0 | 2.11 | 0 | 0 | 0 | 0 | 0 | 0 | 0 | 0 | 0 | 0 | 0 | 0 | 98.8% | 0 | 0 | 0 | 0 | 0 | 0 | 0 | 0 | 0 | –
9 | COc1cc(Nc2ncc3c(n2)-c2ccc(Cl)cc2C(c2c(F)cccc2OC)=NC3)ccc1C(=O)O [Alisertib] | 32.7 | 0 | 0 | 0 | 3.47 | 0 | 0 | 9.1 | 2.03 | 27.9 | 1.48 | 0 | 0 | 5.31 | 0 | – | 23.4 | 0 | 8.44 | 5.92 | 5.73 | 11.8 | 12.7 | 0 | 4.67 | –
10 | C=CCNC1=C2C[C@@H](C)C[C@H](OC)[C@H](O)[C@@H](C)/C=C(\C)[C@H](OC(N)=O)[C@@H](OC)/C=C\C=C(/C)C(=O)NC(=CC1=O)C2=O [Tanespimycin] | 0 | 0 | 2.55 | 7.07 | 15.9 | 0.533 | 0 | 15.9 | 7.84 | 10.9 | 7.62 | 0 | 10.1 | 0 | 0 | 109% | 11.3 | 18.3 | 18 | 10.5 | 15.6 | 18.2 | 18.5 | 23.7 | 14.5 | –
11 | COc1cccc2cc(-c3nc([C@H]4CC[C@H](C(=O)O)CC4)n4ncnc(N)c34)[nH]c12 [OSI-027] | 0 | 0 | 0 | 0 | 0 | 0 | 0 | 0 | 0 | 0 | 0.0118 | 0 | 0 | 0 | 0 | 84.4% | 4.37 | 13.4 | 2.97 | 5.45 | 2.44 | 4.39 | 6.24 | 8 | 3.06 | –
12 | CC(=O)O[C@]1(C(C)=O)CC[C@H]2[C@@H]3C=C(C)C4=CC(=O)CC[C@]4(C)[C@H]3CC[C@@]21C [Megestrol acetate] | 0 | 0 | 0 | 0 | 0 | 0 | 0 | 0 | 0 | 0 | 0 | 0 | 1.18 | 0 | 0 | – | 0 | 0 | 0 | 0 | 0 | 0 | 0 | 0 | 0 | –
13 | CCN1CCN(c2ccc(Nc3cc(N(C)C(=O)Nc4c(Cl)c(OC)cc(OC)c4Cl)ncn3)cc2)CC1 [NVP-BGJ398] | 0 | 0 | 0 | 0 | 0 | 0.0505 | 0 | 0 | 0 | 0 | 0 | 0 | 0 | 0 | 0 | – | 0 | 0 | 0 | 2.55 | 0.39 | 0 | 0 | 0 | 0 | –
